Laboratory results reported in patent US11396511B2, “Substituted 9,13b-dihydro-1H-dibenzo[c,f]imidazo[1,5-a]azepin-3-ylbenzamides as anti-inflammatory and analgesic agents” (FRONTBIO CO., LTD., priority 2017, dated 2022).

How the values were obtained:
Raw 264.7 cells [1] = experiment: Measurement of NO production in LPS-stimulated Raw 264.7 cells; format: cell-based; settings: for inhibition at 12.5 µM / inhibition at 25 µM / inhibition at 50 µM / inhibition at 100 µM: Mus musculus, RAW264.7, LPS 100 ng/ml, 24 h
Description: Raw 264.7 cells were plated in a 96-well cell culture plate (50,000 cells/well). Lipopolysaccharide (LPS) was diluted to 100 ng/ml and the dilution was added to the cell culture media The LPS stimulus was applied for 24 h to induce the activity of the Raw 264.7 cells and supernatants (50 μl each) obtained from the 96-well cell culture plate were plated in a new plate. 50 μl of a sulfanilamide solution was added and the reaction was allowed to proceed for 10 min. 50 μl of a NED solution was added and the reaction was allowed to proceed for 10 min. The amount of NO produced from the cells in the cell culture media was determined by measuring the absorbance at a wavelength of 540 nm.

Raw 264.7 cells [2] = experiment: Cell viability measurement (MTS); format: cell-based
Description: Raw 264.7 cells were plated in a 96-well cell culture plate (50,000 cells/well). The cell culture media were removed from the 96-well cell culture plate. 100 μl of MTS reagent (CellTiter 96 AQueous One Solution Cell Proliferation Assay, Promega) was added to each well and the reaction was allowed to proceed at 37° C. for 20 min. After the reaction was finished, the cell viability were determined by measuring the absorbance at a wavelength of 490 nm.

Row | Structure (SMILES) | reduction of NO production (in words) (Raw 264.7 cells [1]; 100 μM, LPS (100 ng/ml)) | inhibition at 12.5 µM (Raw 264.7 cells [1]) [%] | inhibition at 25 µM (Raw 264.7 cells [1]) [%] | inhibition at 50 µM (Raw 264.7 cells [1]) [%] | inhibition at 100 µM (Raw 264.7 cells [1]; 100 μM) [%] | cell toxicity (cell viability, MTS) (Raw 264.7 cells [2]) | reduction of NO production (in words) (Raw 264.7 cells [1]; together with LPS (100 ng/ml))
1 | NC1=NCC2c3ccccc3Cc3ccccc3N12 (stereo not drawn) [Epinastine, epinastine] | found to reduce the production of NO | 0 | 5.48 | 18.7 | 33.4 | no cell toxicities were observed | –
2 | CC(=O)Oc1ccccc1C(=O)O [Aspirin, acetylsalicylic acid (aspirin)] | – | 0 | 0 | 9.29 | 12.4 | no cell toxicities were observed | less effective in reducing the production of NO
3 | O=C(O)c1ccccc1O [Salicylic acid] | – | 0 | 1.27 | 7.18 | 15.6 | no cell toxicities were observed | less effective in reducing the production of NO
